This passage reports IC50, Activity and TGI results from ChEMBL document CHEMBL5614390, “Novel EGFR inhibitors against resistant L858R/T790M/C797S mutant for intervention of non-small cell lung cancer” (Eur J Med Chem, 2024).

Where only a bound is given, the exact number is not on record here.

The subject of experiment [1] is PC-9. The experiment can be described thus: cells. The conditions noted are these: Homo sapiens, PC-9, 72 h.
Description: Cytotoxicity against human PC-9 cells expressing EGFR L858R/T790M/C797S mutant assessed as inhibition of cell proliferation incubated for 72 hrs by CCK8 assay
Experiment [2] relates to PC-9. The experiment can be described thus: cells. The conditions noted are these: Homo sapiens, PC-9, 72 h. This is another data set of the same source.
Description: Cytotoxicity against human PC-9 cells expressing EGFR Del19/T790M/C797S mutant assessed as inhibition of cell proliferation incubated for 72 hrs by CCK8 assay
The subject of the next experiment is NCI-H1975. The experiment can be described thus: cells. Conditions: Homo sapiens, NCI-H1975, 72 h.
Experiment [3] relates to PC-9. The experiment can be described thus: cells. The conditions noted are these: Homo sapiens, PC-9, 72 h. This is another data set of the same source.
Description: Cytotoxicity against human PC-9 cells expressing EGFR Del19 mutant assessed as inhibition of cell proliferation incubated for 72 hrs by CCK8 assay
Another experiment deals with HCC827. The experiment can be described thus: cells. The conditions noted are these: Homo sapiens, HCC827, 72 h.
For a further experiment, the system named is A-431. The experiment can be described thus: cells. Conditions: Homo sapiens, A-431, 72 h.
The subject of another experiment is MCF7. The experiment can be described thus: cells. The conditions noted are these: Homo sapiens, MCF7, 72 h.
Experiment [4] deals with PC-9. The experiment can be described thus: Induction of apoptosis in human PC-9 cells expressing EGFR L858R/T790M/C797S mutant assessed as viable cells at 1 uM incubated for 48 hrs by Annexin V-FITC/PI staining based flow cytometric analysis (reference value: 98.9 %). In kind it is functional. (In general: A flow cytometer gives signals particle by particle.)
The test system of experiment [5] is PC-9. The experiment can be described thus: Induction of apoptosis in human PC-9 cells expressing EGFR L858R/T790M/C797S mutant assessed as early apoptotic cells at 1 uM incubated for 48 hrs by Annexin V-FITC/PI staining based flow cytometric analysis (reference value: 0.210 %). In kind it is functional.
Experiment [6] relates to PC-9. The experiment can be described thus: Induction of apoptosis in human PC-9 cells expressing EGFR L858R/T790M/C797S mutant assessed as late apoptotic cells at 1 uM incubated for 48 hrs by Annexin V-FITC/PI staining based flow cytometric analysis (reference value: 0.360 %). Type of experiment: functional.
Experiment [7] deals with PC-9. The experiment can be described thus: Induction of apoptosis in human PC-9 cells expressing EGFR L858R/T790M/C797S mutant assessed as necrotic cells at 1 uM incubated for 48 hrs by Annexin V-FITC/PI staining based flow cytometric analysis (reference value: 0.540 %). Type of experiment: functional.
For experiment [8], the system named is PC-9. The experiment can be described thus: Induction of apoptosis in human PC-9 cells expressing EGFR Del19/T790M/C797S mutant assessed as viable cells at 1 uM incubated for 48 hrs by Annexin V-FITC/PI staining based flow cytometric analysis (reference value: 99.8 %). In kind it is functional.
Experiment [9] relates to PC-9. The experiment can be described thus: Induction of apoptosis in human PC-9 cells expressing EGFR Del19/T790M/C797S mutant assessed as early apoptotic cells at 1 uM incubated for 48 hrs by Annexin V-FITC/PI staining based flow cytometric analysis (reference value: 0.050 %). Type of experiment: functional.
The subject of experiment [10] is PC-9. The experiment can be described thus: Induction of apoptosis in human PC-9 cells expressing EGFR Del19/T790M/C797S mutant assessed as late apoptotic cells at 1 uM incubated for 48 hrs by Annexin V-FITC/PI staining based flow cytometric analysis (reference value: 0.040 %). In kind it is functional.
Experiment [11] has as its system PC-9. The experiment can be described thus: Induction of apoptosis in human PC-9 cells expressing EGFR Del19/T790M/C797S mutant assessed as necrotic cells at 1 uM incubated for 48 hrs by Annexin V-FITC/PI staining based flow cytometric analysis (reference value: 0.090 %). Type of experiment: functional.
In experiment [12] the test system is PC-9. The experiment can be described thus: Antitumor activity against human PC-9 cells expressing EGFR L858R/T790M/C797S mutant xenografted in BALB/c nude mouse assessed as tumor growth inhibition at 40 mg/kg, po administered for 18 days relative to control. Type of experiment: functional. The conditions noted are these: time 18 day. (In general: Xenograft models place foreign cells or tissue in a host animal.)

Description for A-431: Cytotoxicity against human A-431 cells assessed as inhibition of cell proliferation incubated for 72 hrs by CCK8 assay
Description for HCC827: Cytotoxicity against human HCC827 cells expressing EGFR Del19 mutant assessed as inhibition of cell proliferation incubated for 72 hrs by CCK8 assay
Description for MCF7: Cytotoxicity against human MCF7 cells assessed as inhibition of cell proliferation incubated for 72 hrs by CCK8 assay
Description for NCI-H1975: Cytotoxicity against human NCI-H1975 cells expressing EGFR L858R/T790M mutant assessed as inhibition of cell proliferation incubated for 72 hrs by CCK8 assay

As usually defined, the IC50 is the concentration at which inhibition is half-maximal. A low value points to inhibition by little substance. As for `C=CC(=O)Nc1cc(Nc2ncc(F)c(-c3ccc4cc(C(=O)NC)n(C(C)C)c4c3)n2)ccc1N1CCN(C(C)C)CC1`, the concentration for half-maximal inhibition (IC50) in the experiment on PC-9 [1] turned out to be 138 nM; in the experiment on PC-9 [2], 258 nM; with NCI-H1975, 150 nM; in the experiment on PC-9 [3], 147 nM; in the experiment with HCC827 it was 103 nM; in the experiment with A-431, 46 nM. This molecule also returned an IC50 in the experiment on MCF7 of 459 nM.
Regarding `C=CC(=O)Nc1cc(Nc2ncc(F)c(-c3ccc4cc(C(=O)NC)n(C(C)C)c4c3)n2)c(OC)cc1N1CCN(C)CC1`, the IC50 in the experiment on PC-9 [1] is 1110 nM; in the experiment on PC-9 [2] it was 2190 nM; with NCI-H1975 it was 1160 nM; in the experiment on PC-9 [3], 2090 nM; in the experiment with HCC827, 1120 nM; in the experiment with A-431, > 10000 nM. In addition, the IC50 in the experiment on MCF7 is > 10000 nM.
Take `C=CC(=O)Nc1cc(Nc2ncc(F)c(-c3ccc4cc(C(=O)N(C)C)n(C(C)C)c4c3)n2)ccc1N1CCN(C(C)C)CC1`: the IC50 was 380 nM in the experiment on PC-9 [1]; 251 nM in the experiment with PC-9 [2]; 468 nM with NCI-H1975; 122 nM in the experiment on PC-9 [3]; 692 nM with HCC827; 441 nM with A-431. The molecule further registered an IC50 with MCF7 of 875 nM.
For the molecule `C=CC(=O)Nc1cc(Nc2ncc(F)c(-c3ccc4cc(C(=O)N(C)C)n(C(C)C)c4c3)n2)ccc1N1CCN(C)CC1`, the IC50 amounted to 2240 nM with PC-9 [1]; 1960 nM in the experiment with PC-9 [2]; 1180 nM in the experiment on NCI-H1975; 1980 nM with PC-9 [3]; 1290 nM in the experiment on HCC827; 4130 nM with A-431. For the same molecule, the IC50 in the experiment on MCF7 is 4040 nM.
For `C=CC(=O)Nc1cc(Nc2ncc(F)c(-c3ccc4cc(C(=O)NC)n(C(C)C)c4c3)n2)ccc1N(C)CCN(C)C`, the IC50 is 74 nM with PC-9 [1]; 48 nM in the experiment with PC-9 [2]; 44 nM in the experiment with NCI-H1975; 53 nM in the experiment with PC-9 [3]; 385 nM with HCC827; 1020 nM with A-431. The same molecule returned a half-maximal inhibitory concentration (IC50) in the experiment on MCF7 of 159 nM.
The term TGI denotes how far tumour growth fell short of that in controls. With `C=CC(=O)Nc1cc(Nc2nccc(-c3cn(C)c4ccccc34)n2)c(OC)cc1N(C)CCN(C)C` [OSIMERTINIB], the Activity with PC-9 [4] was 89%; in the experiment on PC-9 [5] it was 4.73%; with PC-9 [6], 5.56%; with PC-9 [7], 0.67%; with PC-9 [8], 85.5%; in the experiment on PC-9 [9] it was 3.39%. In addition, the Activity in the experiment on PC-9 [10] is reported as 6.39%; in the experiment with PC-9 [11], 4.73%. In addition, in the experiment with PC-9 [12], the TGI was 30.9%. Moreover, the IC50 in the experiment on PC-9 [2] was 2790 nM; in the experiment on PC-9 [3] it was 15 nM; in the experiment with HCC827 it was 16 nM; with MCF7, 3520 nM.
As for `C=CC(=O)Nc1cc(Nc2ncc(F)c(-c3ccc4cc(C(=O)NC)n(C(C)C)c4c3)n2)c(OC)cc1N1CCN(C(C)C)CC1`, the half-maximal inhibitory concentration (IC50) with PC-9 [1] was determined as 200 nM; in the experiment on PC-9 [2], 2280 nM; in the experiment on NCI-H1975, 474 nM; in the experiment on PC-9 [3] it was 1030 nM; in the experiment on HCC827, 2180 nM; in the experiment on A-431, 4920 nM. In the experiment with MCF7, this molecule came in with an IC50 of 3840 nM.
